Assay results from US20140112895A1, “GLP-1 PROMOTER MEDIATED INSULIN EXPRESSION FOR THE TREATMENT OF DIABETES” (priority 2010, published 2014).

Test system: STC-1 cells
Experiment: MTT assay of antibiotic cytotoxicity on STC-1 cells
Assay type: cell-based, mouse
Conditions: STC-1 cells without antibiotic resistant gene; antibiotic range 0 to 1 mg/ml; optical density read at 560 nm
From the text: For assessment of antibiotic cytotoxicity, a common methodology is the MTT assay which has been widely used as a colorimetric approach based on the activity of living cells. MTT assay is a standard assay (an assay which measures changes in color) for measuring cellular proliferation. Yellow MTT (3-(4,5-Dimethylthiazol-2-yl)-2,5-diphenyltetrazolium bromide, a tetrazole) is reduced to purple formazan in the mitochondria of living cells. The absorbance of this colored solution can be quantified by measuring at a certain wavelength (usually between 500 and 600 nm) by a spectrophotometer.
Therefore, the MTT assay was done for both antibiotics to determine the appropriate concentration of the antibiotic that kills the entire STC-1 cells lacking the antibiotic resistant gene. In this case, STC-1 cells (without any antibiotic resistant gene) were treated with different concentration of zeocin and geneticin antibiotic. The concentration of antibiotics in the culture media was in the range of 0 to 1 mg/ml in 12 wells (Table 7).
Optical density of solutions was read at 560 nm on an ELISA plate reader. The absorbance of colored solution is directly proportional to the number of cells. Based on MTT assay result, the concentration of geneticin and zeocin antibiotic that are able to kill all the STC-1 cells (without antibiotic resistant gene) were 400 ug/ml and 500 ug/ml.

Row | Structure (SMILES) | concentration of antibiotic able to kill all the STC-1 cells
1 | CN[C@@H]1[C@@H](O)[C@@H](O[C@@H]2[C@@H](O)[C@H](O[C@H]3O[C@H]([C@@H](C)O)[C@@H](O)[C@H](O)[C@H]3N)[C@@H](N)C[C@H]2N)OC[C@]1(C)O [geneticin] | 400 µg/mL
2 | Cc1c(N)nc([C@H](CC(N)=O)NC[C@H](N)C(N)=O)nc1C(=O)N[C@H](C(=O)N[C@H](C)[C@@H](O)[C@H](C)C(=O)N[C@H](C(=O)NCCC1=N[C@@H](c2nc(C(=O)NCCCCN=C(N)N)cs2)CS1)[C@@H](C)O)[C@@H](O[C@@H]1O[C@@H](CO)[C@@H](O)[C@H](O)[C@@H]1O[C@H]1O[C@H](CO)[C@@H](O)[C@H](OC(N)=O)[C@@H]1O)c1cnc[nH]1 [zeocin] | 500 µg/mL
